Measurements reported in patent US12029716B2, “Derivatives of korormicin useful as antibiotics” (Viotika Life Sciences Inc., priority 2015, dated 2024).
pIC50, pKi: −log10 of the molar value. Converted amounts (≈) assume the structure as drawn. “And” between values parts separate entries of the source, which are not always exact repeats. Identical values can stand only once. “Also recorded” adds a separate entry of the source. Like-named read-outs stand apart in the source and are kept apart here.

Experiments:
Chlamydia trachomatis = test: C. trachomatis infection of HeLa cells (chlamydial inclusions, immunocytochemistry); format: cell-based; settings: for MCC2, Minimal Chlamydicidal Concentration: after 2 passages with treatment
Procedure: Chlamydia trachomatis (C. trachomatis) propagation and treatment were carried out as follows. C. trachomatis was propagated in HeLa cells. The titer of C. trachomatis was determined in cyclohexamide-treated HeLa cells, and concentrations used were expressed as inclusion forming units (IFU) per mL.
Assessment of the level of infection was determined as follows. HeLa cells were seeded on glass coverslips in 24-well plates at 3×10^4 cells/well and inoculated with C. trachomatis and then treated with antibiotic (or other compounds of interest). After 48 hours, the infected cells were fixed with 100% methanol and then incubated with anti-Chlamydia monoclonal antibody. Inclusion bodies were visualized by staining with FITC-conjugated secondary antibody and DAPI as counterstaining. The samples were examined by a fluorescence microscopy. Number of inclusions was calculated per 100 cells.
Assessment of antichlamydial activity of Korormicin (Scheme shown in FIG. 1) and PEG-2 (Scheme shown in FIG. 2) were performed as follows. Cells were infected with C. trachomatis and treated with different concentrations of antibiotic of choice. After 48 h of C. trachomatis was collected (P1) and used to infect fresh cells. Subsequent collections of C. trachomatis were used to obtain P2, P3, P4 and P5 stocks of C. trachomatis. Dilution of C. trachomatis used to infect cells after treatment with PEG-2 had to be minimized in order to visualize inclusions. Last passage collection of C. trachomatis (P5) of Korormicin treatment and all collected of passages of C. trachomatis treated with PEG-2 were used to establish infectivity of treated Chlamydia (Scheme shown in FIG. 3).
For MIC50 (Minimal Concentration of the antibiotic that inhibits formation of chlamydial inclusions on 50%) determination HeLa cells were grown in 24-well or 96 well plates overnight prior to chlamydial inoculation. Elementary bodies were applied to the cells in small volume of SPG (0.22 M sucrose, 8.6 mM Na2HPO4, 3.8 mM KH2PO4, 5 mM glutamic acid, 0.2 μm-filtered, pH 7.4) and after 2 hours of incubation unattached elementary bodies were removed and infected cells were treated with different concentration of antibiotics in Dulbecco's modified Eagle's medium (DMEM, Invitrogen) with 5% fetal bovine serum (FBS, Invitrogen) in the presence of cycloheximide (1.0 μg/ml). After 42 h inclusions were visualized by immunocytochemistry.
To determent chlamydicidal effect of Korormicin (Scheme 1) and PEG-2 (Scheme 2) Hela cells were infected with C. trachomatis and treated with different concentrations of antibiotics. After 48 h of C. trachomatis was collected (P1) and used to infect fresh cells. Subsequent collections of C. trachomatis were used to obtain P2, P3, P4 and P5 stocks of C. trachomatis. Dilution of C. trachomatis used to infect cells after treatment with PEG-2 had to be minimized in order to visualize inclusions. (See Scheme 2 below). Last passage collection of C. trachomatis (P5) of Korormicin treatment and all collected of passages of C. trachomatis treated with PEG-2 were used to establish infectivity of treated C. trachomatis. Minimal chlamydicidal concentration (MCC2) for Korormicin, PEG-2 and PEG-2S was calculated after 2 passages of infection with treatment and reflect inhibition of infection for more than 90%. In all experiments inclusions were visualized by immunocytochemistry.
Cells were seeded on glass coverslips in 24-well plates (2-4×10^4 cells/well) or on glass-bottom 96 well plates (10^4 cells/well), and after overnight inoculated with C. trachomatis. After 42 hours, the infected cells were fixed with 90% acetone (or 100% methanol in case of 96 well plates) and then incubated with anti-Chlamydia antibody (Thermo Fisher Scientific). Alexa Fluor 488-conjugated anti-rabbit IgG (Molecular Probes) was used as secondary antibody. DAPI staining solution (300 nM) was added to the coverslips to identify nuclei. […]

physchem = format: physicochemical; settings: organic solvent or mixture
HeLa cell line = test: Cell toxicity assay, HeLa cells; format: cell-based, human
Procedure: (§1) Cell Toxicity Assay was performed as follows. HeLa, HEK293 and primary VSM cells were seeded at 5×10^3 cells/well in 96-well plates and incubated with Korormicin, PEG-2 or homoserine lactones in DMEM containing 1% fetal bovine serum (FBS; Invitrogen Corp.). After 48 hours, the number of living cells was determined by a colorimetric enzyme assay, based on a cytoplasmic enzyme activity present in viable cells.

Na^+-NQR [1] = settings: cited from earlier work
[2] = tested on: primary Vascular Smooth Muscle cells; test: Cell toxicity / proliferation assay, primary vascular smooth muscle cells; format: cell-based, human; settings: for toxicity to primary cells (in words): primary Vascular Smooth Muscle cells
Procedure: as §1
Cells were seeded at 5×10^3 cells/well in 96-well plates and incubated with C. trachomatis in DMEM containing 1% fetal bovine serum (FBS; Invitrogen Corp.). After 48 hours, the number of living cells was determined by a colorimetric enzyme assay (CellTiter 96 Cell Proliferation Assay; Promega Corporation, Madison, WI) based on a cytoplasmic enzyme activity present in viable cells. (Cory et al. Use of an aqueous soluble tetrazolium/formazan assay for cell growth assays in culture. Cancer Commun. 1991; 3:207-212). The absorbance of a formazan product in tissue culture media was measured at 500 nm using a microplate reader.

Na^+-NQR [3] = molecular target: T1, Na^+-NQR (Vibrio cholerae serotype O1, UniProt Q9KPS2); test: Na+-NQR activity (dNADH oxidation) in sub-bacterial V. cholerae vesicles; format: biochemical
T1 construct: being placed in its native membrane; endogenous in cells; sub-bacterial membrane vesicles made by French press

C. difficile ATCC 700057 = test: Susceptibility test of Clostridium difficile growth; format: cell-based; settings: 0.5 μM-50 μM
Procedure: Evaluation of a PEG-2S against Clostridium difficile (C. difficile ATCC 700057) was performed by Drop method on pre-reduced BAK plates according to Performance Standards for Antimicrobial Susceptibility Testing (Methods for Antimicrobial Susceptibility Testing of Anaerobic Bacteria; Approved Standard—Eighth Edition; Volume 32 Number 5, 2012).

[4] = tested on: HEK293 cells infected with C. trachomatis; test: Intracellular sodium in HEK293 cells infected with C. trachomatis; format: cell-based, human; settings: 1 and 2.5 μM (low μM)
Procedure: (§2) pHrodo™ Green AM and CoroNa Green Sodium Indicator (both Molecular Probes, Invitrogen) were used to measure intracellular pH (pHi) and intracellular sodium (Na^+i) concentration. HEK293 cells were seeded on 24 well plates and infected with C. trachomatis after overnight incubation in DMEM with 5% FBS. After 2 hours of incubation with C. trachomatis cells were treated with different concentrations of PEG-2S and subjected to pHi and Na^+i measurement at different time points according to manufacturer's protocols. In all assessments calibration curves were performed prior to the experiments. Fluorescent inverted microscope (TE-2000s Nikon) was used to obtain images and mean intensity was quantified using NIS Elements imaging software (Nikon, Mississauga, ON).

[5] = tested on: HEK293 cells infected with C. trachomatis; test: Intracellular pH in HEK293 cells infected with C. trachomatis; format: cell-based, human
Procedure: as §2

Escherichia coli = test: Growth of free-living bacteria in liquid medium (OD600); settings: 1.0 to 50 μM
Enterococcus faecalis = test: as above; settings: 1.0 to 50 μM
Lactococcus lactis = test: as above; settings: 1.0 to 50 μM
[6] = Chlamydia trachomatis, HeLa, cell culture experimental model, read-out: IC50(Chl), half-maximal inhibition of the proliferation of Chlamydia trachomatis

CC[C@@]1(C)C=C(NC(=O)C[C@@H](O)/C=C\C=C\CCCCCCN(C)C(=O)OC(C)(C)C)C(=O)O1 [PEG-6(Boc)]
pIC50 (Chlamydia trachomatis; [6]): 6.02
solubility (physchem): > 50 mM

CC[C@@]1(C)C=C(NC(=O)C[C@@H](O)/C=C\I)C(=O)O1 [PEG-10]
pIC50 (Chlamydia trachomatis; [6]): 6.17
solubility (physchem): > 50 mM

CCCCCCC/C=C/C=C\CCC(=O)NC1=C[C@](C)(CC)OC1=O [PEG-14]
pIC50 (Chlamydia trachomatis; [6]): 5.92
solubility (physchem): > 50 mM

CCCC(=O)N[C@H]1CCOC1=O [N-butyryl-L-Homoserine lactone]
Cytotoxicity on HeLa cell line (HeLa cell line; 12.5 μM): no
Cytotoxicity on HeLa cell line (HeLa cell line; 25 μM): no
Cytotoxicity on HeLa cell line (HeLa cell line; 50 μM): no
Cytotoxicity on HeLa cell line (HeLa cell line; 100 μM): no
Anti-Chlamydial effect (Chlamydia trachomatis; 12.5 μM): no
Anti-Chlamydial effect (Chlamydia trachomatis; 25 μM): no
Anti-Chlamydial effect (Chlamydia trachomatis; 50 μM): No
Anti-Chlamydial effect (Chlamydia trachomatis; 100 μM): no

CCCCCCCCCCC[C@H](O)CC(=O)NC1=C[C@](C)(CC)OC1=O [PEG-11]
pIC50 (Chlamydia trachomatis; [6]): 6.20
solubility (physchem): > 50 mM

CCCCCCCCCC(=O)CC(=O)N[C@H]1CCOC1=O [N-3-oxo-dodecanoyl-L-Homoserine lactone]
Cytotoxicity on HeLa cell line (HeLa cell line; 12.5 μM): yes
Cytotoxicity on HeLa cell line (HeLa cell line; 25 μM): yes
Cytotoxicity on HeLa cell line (HeLa cell line; 50 μM): yes
Cytotoxicity on HeLa cell line (HeLa cell line; 100 μM): yes
toxicity to human cells (in words) (HeLa cell line; HeLa): highly toxic

CCCCCCCC[C@H]1O[C@H]1C/C=C/C=C\[C@H](O)CC(=O)NC1=C[C@](C)(CC)OC1=O [Korormicin, (3R,4Z,6E)-N-[(5S)-5-Ethyl-5-methyl-2-oxo-2,5-dihydro-3-furanyl]-3-hydroxy-8-[(2S,3R)-3-octyl-2-oxiranyl]-4,6-octadienamide]
pKi (Na^+-NQR [1]; isolated Na+-NQR, listed as korormicin, read-out: inhibitor constant (Ki) of quinone reduction by Na+-NQR): ~10.10
pKi (Na^+-NQR [1]; isolated Na+-NQR, read-out: inhibitor constant (Ki) of quinone reduction by Na+-NQR): 10.09
pKi (Na^+-NQR [1]; preparations of isolated enzyme, read-out: Ki): ~10.10
lowering of the cell titer ([2]; VSMC proliferation, 5 to 15 μM): ~10%
toxicity to primary cells (in words) [2]: toxic
efficacy against C. trachomatis infection (in words) (Chlamydia trachomatis): effective
number of inclusions, of control (Chlamydia trachomatis; 5 consecutive treatments, 15 μM): 4.8%
IC50 (Chlamydia trachomatis; Chlamydia trachomatis, HeLa, read-out: MIC501, Minimal Inhibitory Concentration after the treatment, first treatment): 8.28 µg/mL
pIC50 (Chlamydia trachomatis; Chlamydia trachomatis, HeLa, read-out: MIC501, Minimal Inhibitory Concentration after the treatment, first treatment, 50% inhibition of inclusion formation): 4.74
IC50 (Chlamydia trachomatis; Chlamydia trachomatis, HeLa, read-out: MIC502, Minimal Inhibitory Concentration after the second treatment, second treatment): 10 µM and 4.6 µg/mL
concentration effective against C. trachomatis (Chlamydia trachomatis; cell culture models): 10 to 20 µM
number of chlamydial inclusions, of control (Chlamydia trachomatis; five consecutive treatments, 20 μM): less than 2%

CCCCCCCc1cc(O)c2ccccc2[n+]1[O-] [HQNO, 2-n-heptyl-4-hydroxyquinoline N-oxide]
pKi (Na^+-NQR [1]; read-out: Ki for Na+-NQR): 6.52
pIC50 (Na^+-NQR [3]): 6.89

CCCCCCCCCC(=O)N[C@H]1CCOC1=O [N-decanoyl-L-Homoserine lactone]
Cytotoxicity on HeLa cell line (HeLa cell line; 12.5 μM): no
Cytotoxicity on HeLa cell line (HeLa cell line; 25 μM): no
Cytotoxicity on HeLa cell line (HeLa cell line; 50 μM): no
Cytotoxicity on HeLa cell line (HeLa cell line; 100 μM): no
Anti-Chlamydial effect (Chlamydia trachomatis; 12.5 μM): no
Anti-Chlamydial effect (Chlamydia trachomatis; 25 μM): no
Anti-Chlamydial effect (Chlamydia trachomatis; 50 μM): no
Anti-Chlamydial effect (Chlamydia trachomatis; 100 μM): no

CCCCCC(=O)N[C@H]1CCOC1=O [N-hexanoyl-L-Homoserine lactone]
Cytotoxicity on HeLa cell line (HeLa cell line; 12.5 μM): no
Cytotoxicity on HeLa cell line (HeLa cell line; 25 μM): no
Cytotoxicity on HeLa cell line (HeLa cell line; 50 μM): no
Cytotoxicity on HeLa cell line (HeLa cell line; 100 μM): no
Anti-Chlamydial effect (Chlamydia trachomatis; 12.5 μM): no
Anti-Chlamydial effect (Chlamydia trachomatis; 25 μM): no
Anti-Chlamydial effect (Chlamydia trachomatis; 50 μM): No
Anti-Chlamydial effect (Chlamydia trachomatis; 100 μM): no

CCCCCCC/C=C/C=C\[C@H](O)CC(=O)NC1=C[C@](C)(CC)OC1=O [PEG-2S]
effect on growth (C. difficile ATCC 700057): does not affect the growth
pIC50 (Na^+-NQR [3]): 8.75
effect on intracellular sodium accumulation / changes of [Na+] [4]: sensitive; also recorded: prevents changes
toxicity to primary cells (in words) [2]: low cytotoxicity
pIC50 (Chlamydia trachomatis; Chlamydia trachomatis, HeLa, read-out: IC50(Chl), half-maximal inhibition of the proliferation of Chlamydia trachomatis, cell culture experimental model): 6.15
MCC2, Minimal Chlamydicidal Concentration (Chlamydia trachomatis): 0.36 µg/mL
MCC2, Minimal Chlamydicidal Concentration (Chlamydia trachomatis; inhibition of infection for more than 90%): 1.0 µM
MIC501, Minimal Inhibitory Concentration after the treatment (Chlamydia trachomatis; first treatment): 0.25 µg/mL (≈ 0.688 µM)
pIC50 (Chlamydia trachomatis; read-out: MIC502, Minimal Inhibitory Concentration after the second treatment, second treatment): 6.60
MIC502, Minimal Inhibitory Concentration after the second treatment (Chlamydia trachomatis; second treatment): 0.09 µg/mL (≈ 0.248 µM)
internal pH of infected cells ([5]; 1.0 μM, within first 5 hours of infection): ~7.6
effect on chlamydia-induced acidification ([5]; 2.5 μM): prevented the chlamydia-induced acidification completely
effect on changes of cytoplasmic pH ([5]; 1 and 2.5 μM): prevents changes of cytoplasmic pH
effect on growth (Escherichia coli): did not affect the growth
effect on growth (Enterococcus faecalis): did not affect the growth
effect on growth (Lactococcus lactis): did not affect the growth
solubility (physchem): < 25 mM
